Data taken from patent US12129305B2, “Targeting CLPTM1L for treatment and prevention of cancer” (The Medical College of Wisconsin, Inc., priority 2018, dated 2024).

Experiments:
[1] = tested on: SL3 parental xenografts; test: SL3 xenograft model, parental; assay type: in vivo, NU/J mice; details: weekly 2.5 mg/kg cisplatin and/or 5 mg/kg 102-5; 24 days post-inoculation
Procedure: (§1) Four-week old female NU/J mice (2019, Jackson Laboratories) were acclimated for 1 week before injection of 0.5×10^6 parental SL3 or 1×10^6 cisplatin-resistant SL3-cis cells subcutaneously into the flank in 200 μL PBS. Tumors were measured with calipers and volumes were calculated by ½ (W×W×L). After tumors had grown to an average of 100 mm^3, mice were separated into groups of 5 mice, each group with 100 mm^3 average tumor sizes. Mice were treated weekly with intraperitoneal doses of PBS control, cisplatin 2.5 mg/kg, and/or 102-5 5 mg/kg in 200 μL of PBS at room temperature beginning on day 6 post-inoculation. Cisplatin treatments were administered 24 hours following antibody treatment. Tumor volume was measured at least weekly. Animal health was monitored daily and animal weights measured at least weekly. All procedures were reviewed and approved by MCW IACUC committee #2 under AUA6339.
(§2) J/NU mice xenografted with SL3 parental or SL3-cis platinum resistant cells were treated weekly with control vehicles, 2.5 mg/kg cisplatin, and/or 5 mg/kg 102-5 anti-CLPTM1L. The effects of cisplatin and those of 102-5 on cisplatin treatment were investigated in this model rather than those of carboplatin since the SL3cis line was developed specifically as a cisplatin resistant line.

[2] = tested on: SL3-cis platinum resistant xenografts; test: SL3 xenograft model, cisplatin resistant; assay type: in vivo, NU/J mice; details: weekly 2.5 mg/kg cisplatin and/or 5 mg/kg 102-5; 24 days post-inoculation
Procedure: as §1, §2

[3] = tested on: Caspase-3 cleavage and Akt phosphorylation in SL3cis; test: Western blotting of SL3cis lysates for caspase cleavage and Akt phosphorylation; assay type: cell-based, human; details: SL3cis spheroids
Procedure: (A) A2780 apoptotic killing (casp 3/7 live imaging) after 36 hour mAb treatment (scFv clones 102-4a left, 102-5a right) and 24-hour carboplatin treatment. (B) Dose-response to up to 20 μM carboplatin in resistant A2780 cells treated with either control IgG1 or 102-5, relative to 0 carboplatin controls. (C) Kinetic killing assay (live imaging) in A2780 with human anti-CLP™1L scFv and/or 10 μM carboplatin treatment. *p<0.05, **p<0.005, ***p<0.0005. (D) Western blotting and densitometry for Akt and phospho-Akt (T308) in A2780 andA2780cis. […]
Cells were lysed with 100 μL of 1× NP40 lysis buffer containing proteinase inhibitors, sheared 10 times with a 28-gauge needle, spun at 16,000×g for 30 minutes, normalized by protein concentration as determined by the Bradford method, and the supernatant boiled for 5 minutes. Twenty microliters of normalized lysate were resolved by SDS-PAGE on 10% acrylamide gels at 150 volts for 1 hour, transferred by iBlot dry transfer (Life Technologies), blocked for 2 hours with TBST 10% milk, incubated with primary antibodies at 1:1000 in TBST 5% milk at 4C overnight with rocking, washed 3×5 minutes with TBST, incubated with secondary anti-rabbit-HRP (Santa Cruz Biotechnology) or goat anti-human-HRP (Invitrogen MH1715) at 1:10,000 in TBST 5% milk for 2 hours with rocking, washed 5×10 minutes with TBST, and signal analyzed using a Biorad Chemidoc XRS. […]

[4] = tested on: ID8-luc ovarian tumor cells; test: ID8-luc orthotopic syngeneic ovarian isograft model; assay type: in vivo, C57bl/6 mice; details: carboplatin alone, 10 mg/kg weekly for three weeks; over 35 days
Procedure: ID8-luc model: Five-week-old C57bl/6 mice (Jackson labs strain 664) were acclimated for one week and injected intraperitoneally with […] luciferase expressing ID8 syngeneic ovarian tumor cells suspended in 200 μL of PBS under Medical College of Wisconsin animal protocol AUA6339. One week after injection, antibodies and/or chemotherapeutic agents were administered intraperitoneally at the indicated doses. Chemotherapeutic doses or vehicle were administered one day before control or therapeutic antibody doses. Imaging and analysis of luciferin radiance was done up to twice weekly on an IVIS Spectrum-CT Imaging System equipped with thermoelectrically-cooled CCD camera. Mice were monitored twice weekly for weight and signs of morbidity. Mice were euthanized after 45 days or upon signs of morbidity. Animal studies were conducted using the standards for humane treatment of animals as described in the U.S. Public Health Service Policy on Humane Care and Use of Laboratory Animals.
With disseminated peritoneal disease being the most common presentation upon recurrence of ovarian carcinoma, we utilized an orthotopic isograft model of disseminated peritoneal ovarian cancer. Human anti-CLPTM1L binding to luciferase-expressing ID8 ovarian tumor cells (ID8-luc) was detected by flow cytometry (FIG. 31A). […] Tumor load was monitored by luciferin luminescence using whole body imaging. […]

SMILES	tumor growth and volumes [1]	tumor growth [2]	Akt phosphorylation at threonine 308 [3]	Caspase-3 cleavage ([3]; 16 days of growth)	tumor load [4]
N.N.[Cl][Pt][Cl] [cisplatin, reference compound]	significantly inhibited	significantly inhibited tumor growth only in combination therapy with 102-5 anti-CLPTM1L	induced by cisplatin treatment	Caspase-3 cleavage was induced	–
N.N.O=C([O-])C1(C(=O)[O-])CCC1.[Pt+2] [carboplatin, reference compound]	–	–	–	–	1.23 fold
